What was measured:
S. aureus Cowan [1] = experiment: S. aureus Cowan-infected A549 cells treated with flucloxacillin and lysosomotropic alkalinizing agents (intracellular persisters, SCVs); type: cell-based, Staphylococcus aureus; details: for effect on phagolysosomal pH: infected host cells
Description: Reduction of S. aureus persisters through phagolysosome alkalinization. S. aureus Cowan-infected A549 cells were treated with flucloxacillin alone (control) or supplemented with lysosomotropic alkalinizing agents (chloroquine (a), bafilomycin A1 (b) and ammonium chloride (c)). Colony phenotypes of viable intracellular persisting bacteria were determined and enumerated at indicated time points. Data were pooled from three independent experiments done in triplicates, mean±SEM. Two-way ANOVA found the factors time and treatment to be significant (p-value<0.01).
MSSA strain Cowan is highly invasive, but not cytotoxic which allowed maintaining this strain intracellularly over several days in the lung epithelial cell line A549. Extracellular bacteria were killed by adding a high dose of flucloxacillin to the infected host cells. Flucloxacillin is typically used to treat S. aureus endocarditis in patients. Absence of extracellular bacteria was confirmed by sterility of culture supernatants. Host cells were lysed to release intracellular bacteria and colony counts, as well as colony phenotypes, were determined at various time points. […] The number of viable intracellular persisting bacteria decreased during the course of infection while the frequency of SCVs increased and reached 5.6% after seven days.
No differences in total colony counts between control and treated cells were observed. […] No significant differences in host cell viability were observed after treatment with the alkalinizing agents.
Growth resumption of S. aureus persisters through treatment of host cells with chloroquine was assessed. […] We observed no dividing bacteria in infected host cells without chloroquine treatment.

S. aureus Cowan [2] = experiment: In vivo infection model: mice infected intraperitoneally with S. aureus Cowan; parameters: species or system Staphylococcus aureus
Description: Mice were infected with S. aureus Cowan intraperitoneally. Six hours and two days post-infection mice were treated with 1 mg flucloxacillin and 0.2 mg chloroquine (+CQ). Mice treated with flucloxacillin only served as control (−CQ). †, sacrifice (a). Colony phenotypes of bacteria recovered from target tissues (b), peripheral blood and peritoneal lavage (c) were determined and enumerated. Each point represents one mouse. Horizontal bars indicate mean±SEM, n=11 mice per group. PL, peritoneal lavage. Two-way ANOVA found the factor treatment to be significant (p-value<0.01).
Mice infected with S. aureus Cowan were treated with flucloxacillin alone (control), or in combination with chloroquine (FIG. 5a).

Row | SMILES | effect on phagolysosomal pH (S. aureus Cowan [1]) | bacterial cell division (transmission electron microscopy) (S. aureus Cowan [1]; three days post-infection, vs host cells without chloroquine) | frequency of SCVs in various organs and compartments (S. aureus Cowan [2]; 1 mg flucloxacillin and 0.2 mg chloroquine at six hours and two days post-infection vs flucloxacillin only) | absolute bacterial numbers (S. aureus Cowan [2]; flucloxacillin with vs without chloroquine)
1 | Cl.N [ammonium chloride] | neutralized the phagolysosomal pH |  |  | 
2 | CO/C1=C\C(C)=C\[C@@H](C)[C@@H](O)[C@@H](C)C/C(C)=C/C=C/[C@H](OC)[C@@H]([C@@H](C)[C@@H](O)[C@H](C)[C@@]2(O)C[C@@H](O)[C@H](C)[C@@H](C(C)C)O2)OC1=O [bafilomycin A1] | neutralized the phagolysosomal pH |  |  | 
3 | CCN(CC)CCCC(C)Nc1ccnc2cc(Cl)ccc12 (stereo not drawn) [Chloroquine, chloroquine] | neutralized the phagolysosomal pH | facilitated bacterial cell division | significantly reduced | comparable
